Experimental findings from PMC6588697, “Lugdunin amplifies innate immune responses in the skin in synergy with host- and microbiota-derived factors” (Nature Communications, 2019) are described below.

One experiment deals with PHKs. Kind of experiment: CXCL8 expression in PHKs (qRT-PCR, normalized to actin). The class given is cell-based, human. As to conditions: PHKs, 5 h. The procedure: Fig. 1 Lugdunin sensitizes epithelial cells for innate immune defense. a Primary human keratinocytes (PHKs) were pretreated with S. epidermidis conditioned medium (CM), indicated lugdunin concentrations, or the combination of both for 20 h. Subsequently, cells were infected with S. aureus for 1.5 h followed by cell lysis and determination of colony-forming units (CFUs). Shown is one representative experiment of three independent experiments with six technical replicates ± s.e.m. n.s., not significant. b Dorsal skin of mice was pretreated with S. epidermidis CM, 1.5 µg lugdunin alone or in combination with S. epidermidis CM for 24 h. Subsequently, S. aureus CFUs were determined. Horizontal lines represent the mean of each group ± s.e.m. c PHKs were treated with 2 μM lugdunin or with S. epidermidis CM alone or in combination for 20 h and subsequently expression of indicated antimicrobial peptides (AMPs) (respective protein names in brackets) was analyzed and normalized to actin. Shown is one representative experiment of three independent experiments with two technical replicates ± s.e.m. d PHKs were treated with 2 µM lugdunin or 100 ng/mL Pam2Cys for 5 h and subsequently the concentration of indicated cytokines in the supernatant was analyzed by LEGENDplex^TM (BioLegend). Shown is one representative experiment of three independent experiments with two technical replicates ± s.e.m. e PHKs were treated with increasing concentrations of lugdunin or 100 ng/mL Pam2Cys or Pam3Cys for 5 h and subsequently expression of chemokine (C-X-C motif) ligand 8 (CXCL8) was analyzed and normalized to actin. Shown is one representative experiment of three independent experiments, each with two technical replicates ± s.e.m. f, g Indicated cells were treated with 2 µM lugdunin or 100 ng/mL Pam2Cys as a positive control for 5 h and subsequently the concentration of CXCL8 (f) and interleukin-1α (IL-1α) (g) in the supernatant was analyzed by LEGENDplex^TM (BioLegend) and enzyme-linked immunosorbent assay (ELISA) (R&D Systems). Shown is one representative experiment of three independent experiments with two technical replicates ± s.e.m. Significant differences to control treatments were analyzed by ordinary one-way analysis of variance (ANOVA) followed by Dunnett’s multiple comparisons test (*P < 0.05; **P < 0.01; ***P < 0.001; ****P < 0.0001). n.d. = not detected. Source data are provided as a Source Data file
Fig. 4 Lugdunin amplifies the commensal-induced chemokine (C-X-C motif) ligand (CXCL8) induction. a Primary human keratinocytes (PHKs) were either treated with 2 μM of human antimicrobial peptides (AMPs) (black bars) or lugdunin (blue bars), or 0.8 μM (pro)-gallidermin or nisin (black bars), or in combination with S. epidermidis conditioned medium (CM) (gray and red striped bars) for 5 h, and subsequently expression of CXCL8 was analyzed and normalized to actin. Shown is one representative experiment of three independent experiments with two technical replicates ± s.e.m. b PHKs were treated with 2 μM human AMPs, 2 μM lugdunin, 0.8 μM of the other bacteriocins (gray bars) or the correspondent peptide combinations (white bars), or 50 ng/mL Pam2Cys, 10 ng/mL IL-1α, or S. epidermidis CM as controls (black bars), for 5 h and subsequently expression of CXCL8 was analyzed and normalized to actin. Shown is one representative experiment of three independent experiments with two technical replicates ± s.e.m. Significant differences to control treatments were analyzed by ordinary one-way analysis of variance (ANOVA) followed by Dunnett’s multiple comparisons test (***P < 0.001; ****P < 0.0001). Source data are provided as a Source Data file
After 5 h or 20 h of peptide treatment, PHKs were washed once with PBS, followed by the addition of RNA lysis buffer directly into the well. Total RNA was extracted using the Nucleospin RNA Kit (Macherey-Nagel) according to the manufacturer’s protocol. […]

The subject of another experiment is S. epidermidis. Put plainly: Antimicrobial testing (CFU) against S. epidermidis. The class given is cell-based, Staphylococcus epidermidis. The following applies: 3 h, mean. The procedure:
(§1) For bactericidal testing, logarithmically growing staphylococci were resuspended in PBS (Sigma) containing 0.1% TSB (Carl Roth) and colony-forming unit (CFU) was adjusted to 3 × 10^6 CFU/mL. Different concentrations of single peptides and their combinations were diluted in PBS containing 0.1% TSB and incubated with bacteria in triplicates for 3 h at 37 °C and 150 rpm orbital shaking. Subsequently, serial dilutions (10^–1–10^–4) of the bacterial suspensions were prepared in PBS and 20 µL of each dilution was spotted in duplicates onto TSB plates and incubated at 37 °C overnight. The next day, the number of CFU was analyzed and the percentage of viable bacteria was determined by normalizing to the untreated control (100%). Results are illustrated in a S. aureus killing curve. In each experiment, negative control replicates (PBS + 0.1% TSB) as well as sterility control replicates were included.
(§2) Supplementary Figure 7: Efficiency of Lugdunin and DCD -1(L) combinations in 107 […]
(§3) logarithmically grown bacteria were incubated with indicated combinations of 109 lugdunin and DCD-1(L) in PBS containing 0.1% TSB at 37 °C orbital shaking. After 3 110 hours of incubation several dilutions of the bacterial suspensions were plated onto TSB 111 agar pl ates and incubated over night at 37 °C. The next day bacterial CFU were 112 counted. Each experiment was performed in triplicates. Data represent the mean 113 percentage of CFU normalized to the untreated control. Data represent the mean of at 114 least three independent experiments. 115
(§4) (1 picture or pasted object on this page, not shown here)

Another experiment concerns P. aeruginosa. Kind of experiment: Antimicrobial testing (CFU) against P. aeruginosa. It counts as cell-based, Pseudomonas aeruginosa. As to conditions: 3 h.
The subject of the next experiment is P. mirabilis. Kind of experiment: Antimicrobial testing (CFU) against P. mirabilis. The class given is cell-based, Proteus mirabilis. As to conditions: 3 h, mean. The protocol:
as §1, §2, §3, §4

A further experiment concerns E. coli. Kind of experiment: Antimicrobial testing (CFU) against E. coli. It counts as cell-based, Escherichia coli. As to conditions: 3 h, mean.
For another experiment, the system named is E. faecalis. Put plainly: Antimicrobial testing (CFU) against E. faecalis. As to conditions: 3 h, mean. It counts as cell-based, Enterococcus faecalis.
Another experiment has as its system B. subtilis. Kind of experiment: Antimicrobial testing (CFU) against B. subtilis. The following applies: 3 h, mean. It counts as cell-based, Bacillus subtilis. The procedure: as §1, §2, §3, §4

Where “and” joins values, the source holds several entries; their conditions need not be identical. Equal entries are not always repeated.

On to “SSLLEKGLDGAKKAVGGLGKLGKDAVEDLESVGKGAVHDVKDVLDSVL [DCD-1L, dermcidin-derived human AMP of eccrine sweat glands]”, for which the “CXCL8 expression normalized to actin” value is 2.31 and 2.52 in the experiment on PHKs (2 µM human AMPs, 2 µM lugdunin, 0.8 µM other bacteriocins or their combinations, 50 ng/mL Pam2Cys, 10 ng/mL IL-1α, S. epidermidis CM, two technical replicates, Fig 4b); 45.0983 and 49.3507 with PHKs (peptide (2 µM human AMPs or lugdunin, 0.8 µM gallidermin or nisin) in combination with S. epidermidis CM, two technical replicates, Fig 4a); 2.52 and 2.31 in the experiment on PHKs (single treatment: 2 µM human AMPs or lugdunin, 0.8 µM (pro)-gallidermin or nisin, or S. epidermidis CM, M = 1, two technical replicates (rows), Fig 4a). Further, the “S. epidermidis CFU normalized to untreated control (1,00)” value is recorded as 1,43 in the experiment with S. epidermidis (single peptide 1 µM) and 1,33 in the experiment with S. epidermidis (single peptide 2 µM). Further, the “P. aeruginosa CFU normalized to untreated control (1,00)” value is on record as 1,39 in the experiment with P. aeruginosa (single peptide 1 µM, PBS + 0.1% TSB, 37 °C, mean of at least three experiments) and 1,19 in the experiment with P. aeruginosa (single peptide 2 µM, mean). The “P. mirabilis CFU normalized to untreated control (1,00)” value in the experiment with P. mirabilis (single peptide 1 µM) is on record as 0,95; with P. mirabilis (single peptide 2 µM), 1,10. For the same sequence, the entries for the “E. coli CFU normalized to untreated control (1,00)” value with E. coli (single peptide 1 µM) and with E. coli (single peptide 2 µM) were 1,26 and 1,92, respectively. The “E. faecalis CFU normalized to untreated control (1,00)” value in the experiment with E. faecalis (single peptide 1 µM) is reported as 1,40; in the experiment with E. faecalis (single peptide 2 µM) it was 1,55. Also, the “B. subtilis CFU normalized to untreated control (1,00)” value is 0,96 in the experiment with B. subtilis (single peptide 1 µM) and 0,63 with B. subtilis (single peptide 2 µM).
